Measurements reported in PubChem BioAssay (NCI).
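Test compounds were applied to cells in 96-well plates for 48 hours at 5 doses. GI50: concentration for 50% inhibition of growth. Definition used: TGI = concentration required for complete inhibition of growth.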

Key:
Assay in all cases: growth of human tumour cells (NCI), 48 h
ACHN renal = system: ACHN renal
LOX IMVI melanoma = system: LOX IMVI melanoma
SK-OV-3 ovarian = system: SK-OV-3 ovarian
SK-MEL-28 melanoma = system: SK-MEL-28 melanoma
MDA-MB-435 = system: MDA-MB-435
U251 CNS = system: U251 CNS
CAKI-1 renal = system: CAKI-1 renal
SF-295 CNS = system: SF-295 CNS
MCF7 breast = system: MCF7 breast

| Structure (SMILES) | TGI (ACHN renal) [µM] | TGI (LOX IMVI melanoma) [µM] | TGI (SK-OV-3 ovarian) [µM] | TGI (SK-MEL-28 melanoma) [µM] | TGI (MDA-MB-435) [µM] | TGI (U251 CNS) [µM] | TGI (CAKI-1 renal) [µM] | TGI (SF-295 CNS) [µM] | TGI (MCF7 breast) [µM] | GI50 (LOX IMVI melanoma) [µM] | GI50 (MCF7 breast) [µM] | GI50 (SK-OV-3 ovarian) [µM] | GI50 (SK-MEL-28 melanoma) [µM] | GI50 (MDA-MB-435) [µM] | GI50 (CAKI-1 renal) [µM] | GI50 (ACHN renal) [µM] | GI50 (U251 CNS) [µM] | GI50 (SF-295 CNS) [µM] |
| --- | --- | --- | --- | --- | --- | --- | --- | --- | --- | --- | --- | --- | --- | --- | --- | --- | --- | --- |
| O=S(=O)(c1ccc(Br)cc1)n1c2ccc(Br)cc2c2nc3ccccc3nc21 | > 100 | > 100 | > 100 | > 100 | > 100 | 90.3 | > 100 | > 100 | – | – | – | – | – | – | – | – | – | – |
| C/C=C/[C@@]1(OC(=O)c2ccccc2)C[C@@H]2CCCC[C@@H]21 | 31.5 | 44.7 | 32.6 | 32.9 | – | 29.8 | 31.4 | 33.3 | 33.3 | – | – | – | – | – | – | – | – | – |
| CO/C(=N\N=C\c1cc(OC)ccc1OC)c1ccncc1 | > 10 | > 10 | > 10 | > 10 | – | > 10 | – | > 10 | > 10 | – | – | – | – | – | – | – | – | – |
| CN(C)CCNc1ccc(C(=O)NCCCN(C)CCCNC(=O)c2ccc(NCCN(C)C)c3c(=O)c4ccccc4[nH]c23)c2[nH]c3ccccc3c(=O)c12 | 6.24 | 0.286 | 1.3 | 0.604 | 0.286 | 0.589 | 31.8 | 1.91 | 0.489 | – | – | – | – | – | – | – | – | – |
| CCOC(=O)c1cnc(-n2[nH]c(C)c(CCO)c2=O)[nH]c1=O | > 100 | > 100 | > 100 | > 100 | > 100 | > 100 | > 100 | > 100 | > 100 | – | – | – | – | – | – | – | – | – |
| CC1=NN(c2nc(N)nc(-c3ccccc3S(N)(=O)=O)n2)C(C)(C)C1 | 82.1 | > 100 | > 100 | > 100 | > 100 | > 100 | > 100 | > 100 | > 100 | – | – | – | – | – | – | – | – | – |
| O=C1CSC2(CC(/C=C/c3ccccc3)=NN2c2cccc(S(=O)(=O)O)c2)N1c1nc2ccccc2s1 (stereo not drawn) | > 100 | 23.7 | – | > 100 | 37.2 | 42.1 | > 100 | – | 45 | – | – | – | – | – | – | – | – | – |
| CC12CC3C(CC1SCC(=O)O2)C3(C)C (stereo not drawn) | > 100 | – | > 100 | > 100 | – | > 100 | – | > 100 | – | – | – | – | – | – | – | – | – | – |
| O=C(Cn1c(=O)oc2ccc(C(=O)c3ccc(F)cc3)cc21)c1ccc([N+](=O)[O-])cc1 | > 100 | > 100 | > 100 | > 100 | 72.9 | > 100 | > 100 | – | > 100 | – | – | – | – | – | – | – | – | – |
| CC[C@@]1(O)C(=O)OCc2c1cc1n(c2=O)Cc2c-1nc1ccccc1c2/C=N\NC(=O)C(N)CC(C)C (stereo partly drawn) | – | 0.244 | – | > 100 | 2.8 | 0.646 | 0.181 | 0.694 | > 100 | – | – | – | – | – | – | – | – | – |
| O=C(COc1ccc(OCC(=O)N2C(=O)CC(=O)N(c3ccccc3)C2=S)cc1)N1C(=O)CC(=O)N(c2ccccc2)C1=S | > 100 | – | > 100 | > 100 | > 100 | > 100 | > 100 | > 100 | > 100 | – | – | – | – | – | – | – | – | – |
| O=C(CSCC(=O)N/N=C/c1cc(I)cc(I)c1O)N/N=C/c1cc(I)cc(I)c1O | 32.2 | – | 35 | > 100 | 92.9 | 26.2 | > 100 | 47.1 | 70.7 | – | – | – | – | – | – | – | – | – |
| O=C1C2CCCCC2C(=O)N1n1c(Cc2ccc(Cl)cc2)n[nH]c1=O (stereo not drawn) | > 100 | > 100 | > 100 | – | > 100 | > 100 | > 100 | > 100 | > 100 | – | – | – | – | – | – | – | – | – |
| O=C(Cc1ccccc1)NCCc1ccc(O)c(O)c1 | > 100 | > 100 | > 100 | > 100 | 33.8 | > 100 | – | > 100 | > 100 | – | – | – | – | – | – | – | – | – |
| COc1cc2c(cc1OCCCN1CCN(CCCOc3cc4c(cc3OC)C(=O)N3CCC[C@H]3C=N4)CC1)C=CC(C)(C)O2 | – | 2.09 | 2.99 | 2.83 | 2.55 | – | 2.12 | – | 1.69 | 0.755 | 0.423 | 1.61 | 1.51 | 1.24 | 0.827 | – | – | – |
| c1csc(-c2ccc(-c3ccc(-c4ccc(-c5cccs5)s4)s3)s2)c1 | > 100 | – | > 100 | – | > 100 | > 100 | > 100 | > 100 | > 100 | – | – | – | – | – | – | – | – | – |
| O=c1cnn(C/C=C\CO)c(=O)[nH]1 | > 100 | > 100 | – | > 100 | > 100 | > 100 | > 100 | – | > 100 | – | – | – | – | – | – | – | – | – |
| O=C(O)CCCl | > 5000 | > 5000 | > 5000 | > 5000 | – | > 5000 | > 5000 | > 5000 | – | – | – | – | – | – | – | – | – | – |
| COCOc1ccc(C(=O)C(C)c2ccc(OCOC)cc2OCOC)c(O)c1 (stereo not drawn) | > 100 | – | > 100 | > 100 | > 100 | > 100 | > 100 | – | > 100 | – | – | – | – | – | – | – | – | – |

| Structure (SMILES) | TGI (ACHN renal) [µM] | TGI (LOX IMVI melanoma) [µM] | TGI (SK-OV-3 ovarian) [µM] | TGI (SK-MEL-28 melanoma) [µM] | TGI (MDA-MB-435) [µM] | TGI (U251 CNS) [µM] | TGI (CAKI-1 renal) [µM] | TGI (SF-295 CNS) [µM] | TGI (MCF7 breast) [µM] | GI50 (LOX IMVI melanoma) [µM] | GI50 (MCF7 breast) [µM] | GI50 (SK-OV-3 ovarian) [µM] | GI50 (SK-MEL-28 melanoma) [µM] | GI50 (MDA-MB-435) [µM] | GI50 (CAKI-1 renal) [µM] | GI50 (ACHN renal) [µM] | GI50 (U251 CNS) [µM] | GI50 (SF-295 CNS) [µM] |
| --- | --- | --- | --- | --- | --- | --- | --- | --- | --- | --- | --- | --- | --- | --- | --- | --- | --- | --- |
| COc1ccc2oc(=N)c(C(=O)Nc3cccc4ccccc34)cc2c1 | > 100 | – | 92.7 | > 100 | 11.1 | 50.2 | > 100 | 25.4 | 63.9 | – | – | – | – | – | – | – | – | – |
| CCc1nn(CN2CCN(C)CC2)c(=S)n1/N=C\c1ccc(-c2ccc([N+](=O)[O-])cc2)o1 | > 100 | > 100 | > 100 | – | > 100 | > 100 | > 100 | > 100 | > 100 | – | – | – | – | – | – | – | – | – |
| O=C1N[C@H]2c3c(Cl)sc(Cl)c3/C(=N/O)[C@H]2O1 | > 100 | – | > 100 | > 100 | > 100 | > 100 | > 100 | – | > 100 | – | – | – | – | – | – | – | – | – |
| COC(=O)c1cn(CCCC(=O)O)nn1 | > 100 | > 100 | – | > 100 | > 100 | > 100 | > 100 | > 100 | > 100 | – | – | – | – | – | – | – | – | – |
| CCCCNC1CCC2(SCCS2)c2[nH]c3ccccc3c21 (stereo not drawn) | > 100 | 14.4 | > 100 | > 100 | > 49.6 | 97.3 | – | > 100 | 13.2 | – | – | – | – | – | – | – | – | – |
| COc1ccc(-c2nc(N)c(C#N)c3c2CCS(=O)(=O)c2ccc(C)cc2-3)cc1OC | > 100 | > 100 | – | > 100 | 91.6 | > 100 | > 100 | – | – | – | – | – | – | – | – | – | – | – |
| Clc1ccc2c(SCC3CO3)c3ccccc3nc2c1 (stereo not drawn) | 4.55 | > 100 | 53.4 | 21.1 | 20.2 | – | 2.88 | 42.1 | 3.19 | – | – | – | – | – | – | – | – | – |
| COC(=O)[C@H](Cc1ccccc1)NC(=O)c1ccc(CNC(=O)/C=C/c2ccc(-c3ccccc3)cc2)cc1 | > 100 | – | > 100 | > 100 | > 100 | 37.3 | > 100 | 94.5 | > 100 | – | – | – | – | – | – | – | – | – |
| Cc1ccc(C2CC(=O)CC(c3ccc(C)cc3)C23C(=O)NC(=O)NC3=O)cc1 (stereo not drawn) | > 100 | > 100 | – | > 100 | > 100 | > 100 | > 100 | > 100 | > 100 | – | – | – | – | – | – | – | – | – |
| O=C(CP(c1ccccc1)c1ccccc1)c1cccc(C(=O)CP(c2ccccc2)c2ccccc2)c1 | > 100 | – | > 100 | > 100 | > 100 | > 100 | > 100 | > 100 | > 100 | – | – | – | – | – | – | – | – | – |
| Nc1nc2c(=O)c3ccccc3sc2s1 | > 100 | > 100 | – | > 100 | > 100 | > 100 | 91.6 | > 100 | > 100 | – | – | – | – | – | – | – | – | – |
| FC(F)(F)c1ccc(-c2nc(-c3nc4cc(Cl)c(Cl)cc4[nH]3)c3ccccn23)cc1 | 28.5 | – | – | – | – | > 100 | – | > 100 | – | – | – | – | – | – | – | 3.9 | 3.13 | 3.9 |
| CC1(C)O[C@H]2Cn3c(c(C#N)c4ccccc43)[C@H]2O1 | > 100 | – | > 100 | > 100 | > 100 | > 100 | > 100 | > 100 | > 100 | – | – | – | – | – | – | – | – | – |
| O=C(O)[C@H]1[C@@H](C2CCCCC2)O[C@@H](C2CCCCC2)O[C@H]1C(F)(F)F | 32.7 | 36.5 | > 100 | 41.4 | 35.5 | 34.2 | 36.4 | 39.5 | – | – | – | – | – | – | – | – | – | – |
| CCC(C)[C@@H](NCc1ccccc1)[C@H](OCc1ccccc1)[C@@H]1COC(C)(C)O1 (stereo partly drawn) | 49.7 | 38 | > 100 | 71.4 | > 100 | 51.1 | – | 60.2 | 44.4 | – | – | – | – | – | – | – | – | – |
| CCOC(=O)CCCn1nnc(C(=O)OCC)c1C(=O)OCC | > 100 | > 100 | – | > 100 | > 100 | > 100 | > 100 | > 100 | > 100 | – | – | – | – | – | – | – | – | – |
| CCCC(=O)O | 14500 | 8470 | > 18700 | > 18700 | > 18700 | > 18700 | 12000 | > 18700 | – | – | – | – | – | – | – | – | – | – |
| O=C1c2ccccc2C(=O)N1n1c(Cc2ccccc2)n[nH]c1=O | > 100 | > 100 | – | > 100 | > 100 | > 100 | > 100 | > 100 | > 100 | – | – | – | – | – | – | – | – | – |
